Some test systems named below: NCI-H522 lung; LXFL 529 NSCLC; SNB-75 CNS; DLD-1 colon; UACC-62 melanoma; MOLT-4 leukemia; XF 498 CNS; SK-MEL-5 melanoma; KM20L2 colon; HCC-2998 colon; A549 NSCLC; M19-MEL melanoma; MDA-N.
Common to all, as to test: inhibition of tumour cell growth, NCI panel, 48 h

Where “and” joins values, the source holds several entries; their conditions need not be identical. Equal entries are not always repeated.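 The compound was tested at five concentrations on cells cultured in 96-well plates, with a 48-hour exposure period. GI50: concentration for 50% inhibition of growth. TGI: total growth inhibition.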

The text below walks through data of PubChem BioAssay (NCI).

Consider `O=C1O[C@@H](c2ccccc2)C[C@@H]1CN1CCOCC1`, for which the TGI with NCI-H522 lung, with LXFL 529 NSCLC, with SNB-75 CNS, in the assay with DLD-1 colon, in the assay on UACC-62 melanoma and in the assay with MOLT-4 leukemia was above 100 µM each time. Also, the TGI in the assay with XF 498 CNS, in the assay on SK-MEL-5 melanoma, with KM20L2 colon, with HCC-2998 colon and in the assay with A549 NSCLC was above 100 µM throughout.

Turning to `C[N+](C)(C)CC(=O)N/N=c1\cc(C(=O)Nc2ccc(N=O)cc2C#N)oc2cc(O)ccc12`, the TGI in the assay with NCI-H522 lung, in the assay with LXFL 529 NSCLC, in the assay with SNB-75 CNS, with DLD-1 colon, with UACC-62 melanoma and in the assay on MOLT-4 leukemia was above 100 µM in each case. Moreover, the TGI in the assay with XF 498 CNS, with SK-MEL-5 melanoma, with KM20L2 colon, in the assay with HCC-2998 colon, with A549 NSCLC and with M19-MEL melanoma was above 100 µM in each case.

For `O=C1NC(c2ccc(O)cc2)C2CCC1C2` (stereo not given), the TGI in the assay with NCI-H522 lung, with LXFL 529 NSCLC, in the assay on SNB-75 CNS, in the assay on DLD-1 colon, in the assay with UACC-62 melanoma and in the assay on MOLT-4 leukemia was above 100 µM throughout. Moreover, the TGI with XF 498 CNS, with SK-MEL-5 melanoma, with KM20L2 colon, in the assay with HCC-2998 colon, in the assay with A549 NSCLC and with M19-MEL melanoma was above 100 µM each time.

For `Cc1c(Cl)cccc1NC(=O)C(=O)C1C(=O)CC(C)(C)CC1=O`, the TGI in the assay on NCI-H522 lung, with LXFL 529 NSCLC, in the assay with SNB-75 CNS, with DLD-1 colon, in the assay with UACC-62 melanoma and with MOLT-4 leukemia was above 100 µM throughout. In addition, the TGI in the assay with SK-MEL-5 melanoma, with KM20L2 colon, in the assay with HCC-2998 colon, in the assay with A549 NSCLC and in the assay with M19-MEL melanoma was above 100 µM throughout.

With `O=C(/C=C/c1ccccc1)/C=C/c1ccccc1O`, the TGI in the assay with NCI-H522 lung is 33.3 µM; with LXFL 529 NSCLC it was 33.7 µM; in the assay with DLD-1 colon it was 36.9 µM; with UACC-62 melanoma it was 38.8 µM; in the assay on MOLT-4 leukemia, 63.1 µM; in the assay on XF 498 CNS, above 100 µM. The TGI with SK-MEL-5 melanoma came out at 41.6 µM; with KM20L2 colon, 34.8 µM; with HCC-2998 colon it was 26.8 µM; in the assay on A549 NSCLC it was 54.3 µM; in the assay on M19-MEL melanoma it was 33.6 µM.

As to `COc1ccc(C2C(Cl)C(=O)N2NC(=O)c2ccc(NC(C)=O)cc2)cc1` (stereo not given), the TGI in the assay with NCI-H522 lung, in the assay with LXFL 529 NSCLC, in the assay with SNB-75 CNS, in the assay on DLD-1 colon, in the assay on UACC-62 melanoma and with MOLT-4 leukemia was above 100 µM in each case. Moreover, the TGI with XF 498 CNS, in the assay on SK-MEL-5 melanoma, in the assay on KM20L2 colon, in the assay with A549 NSCLC and with M19-MEL melanoma was above 100 µM in each case.

Turning to `Cc1cc(=O)cc2sc3c(C)cccc3nc1-2`, the TGI in the assay on NCI-H522 lung was above 100 µM; with LXFL 529 NSCLC, 32.9 µM; with SNB-75 CNS, above 100 µM; in the assay with DLD-1 colon it was 46.1 µM; with MOLT-4 leukemia it was 93.3 µM; in the assay with SK-MEL-5 melanoma, 31.8 µM. Further, the TGI is above 100 µM in the assay with HCC-2998 colon, above 100 µM with A549 NSCLC and 36.5 µM in the assay on M19-MEL melanoma.

On to `Cc1ccccc1C(C#N)C(=O)C(=O)Nc1nc([N+](=O)[O-])cs1` (stereo not given), for which the TGI in the assay with NCI-H522 lung, in the assay with LXFL 529 NSCLC, in the assay on SNB-75 CNS, with DLD-1 colon, in the assay with UACC-62 melanoma and in the assay on XF 498 CNS was above 100 µM throughout. Moreover, the TGI with SK-MEL-5 melanoma, in the assay on KM20L2 colon, in the assay on HCC-2998 colon, in the assay with A549 NSCLC and in the assay with M19-MEL melanoma was above 100 µM each time.

`CCSc1nnc(CSc2nc(-c3ccccc3)c(-c3ccccc3)[nH]2)n1-c1ccccc1`: the TGI with NCI-H522 lung was determined as 30.5 µM; with LXFL 529 NSCLC, 67 µM; in the assay with SNB-75 CNS, 42.9 µM; with DLD-1 colon it was 37 µM; with UACC-62 melanoma, 30.2 µM; with MOLT-4 leukemia it was 40 µM. Besides, the TGI was found to be 35.3 µM in the assay on XF 498 CNS; 30.9 µM in the assay on SK-MEL-5 melanoma; 32.1 µM in the assay on KM20L2 colon; 36.5 µM in the assay with HCC-2998 colon; 80.9 µM with A549 NSCLC; 33.3 µM in the assay with M19-MEL melanoma.

For the compound `COc1ccc(/C(=C/n2ccnc2)C(=O)c2ccc(OC)c(OC)c2)cc1`, the TGI in the assay with NCI-H522 lung, in the assay on LXFL 529 NSCLC, in the assay with SNB-75 CNS, in the assay on DLD-1 colon, with UACC-62 melanoma and in the assay on MOLT-4 leukemia was above 100 µM each time. The TGI with XF 498 CNS, with SK-MEL-5 melanoma, with KM20L2 colon, in the assay with HCC-2998 colon, in the assay on A549 NSCLC and with M19-MEL melanoma was above 100 µM each time.

As for `COC1O[C@H]2CCN(C(=O)OCc3ccccc3)[C@H]2[C@H]1OCc1ccccc1` (stereo not given in full), the TGI was above 100 µM in the assay with NCI-H522 lung; above 100 µM with LXFL 529 NSCLC; above 100 µM in the assay with SNB-75 CNS; above 100 µM in the assay with DLD-1 colon; 64.4 µM in the assay with UACC-62 melanoma; above 100 µM in the assay with MOLT-4 leukemia. The TGI is above 100 µM with XF 498 CNS; 64.6 µM in the assay on SK-MEL-5 melanoma; above 100 µM in the assay on KM20L2 colon; above 100 µM in the assay with HCC-2998 colon; above 100 µM in the assay with A549 NSCLC; above 100 µM in the assay on M19-MEL melanoma.

As to `CCOC(=O)C(OCC1CC=CCC1)Sc1ccccc1` (stereo not given), the TGI in the assay with NCI-H522 lung, in the assay with LXFL 529 NSCLC, with SNB-75 CNS, in the assay on DLD-1 colon, in the assay with UACC-62 melanoma and in the assay on SK-MEL-5 melanoma was above 100 µM each time. Further, the TGI in the assay on KM20L2 colon, with HCC-2998 colon, with A549 NSCLC and in the assay with M19-MEL melanoma was above 100 µM throughout.

Turning to `COC(=O)c1cc(CC(C)C)c2c(c1)[nH]c1ccccc12`, the TGI with NCI-H522 lung, in the assay on LXFL 529 NSCLC, with SNB-75 CNS, in the assay on DLD-1 colon, with UACC-62 melanoma and in the assay with MOLT-4 leukemia was above 100 µM in each case. For the same compound, the TGI in the assay with XF 498 CNS, with SK-MEL-5 melanoma, in the assay on KM20L2 colon, with HCC-2998 colon, in the assay on A549 NSCLC and with M19-MEL melanoma was above 100 µM in each case.

In the case of `Cc1c(S(=O)(=O)c2ccccc2)c(N)n(Cc2ccccc2)c1C`, the TGI with NCI-H522 lung, in the assay on SNB-75 CNS, in the assay with UACC-62 melanoma, with MOLT-4 leukemia, in the assay with SK-MEL-5 melanoma and in the assay with HCC-2998 colon was above 100 µM throughout. Further, the TGI with A549 NSCLC and in the assay on MDA-N was above 100 µM in each case.

Consider `CC(C)CC(N)C(=O)OCN1C(=O)C2C3C=CC(C2C1=O)C1C2C(=O)N(COC(=O)C(N)CC(C)C)C(=O)C2C31` (stereo not given), for which the TGI in the assay with NCI-H522 lung, with LXFL 529 NSCLC, in the assay with SNB-75 CNS, with DLD-1 colon, in the assay with UACC-62 melanoma and in the assay on MOLT-4 leukemia was above 100 µM each time. Moreover, the TGI with SK-MEL-5 melanoma, with KM20L2 colon, in the assay on HCC-2998 colon and with A549 NSCLC was above 100 µM in each case.

Turning to `COc1ccc(-c2c(C#N)c(S)n(C3OC(COC(C)=O)C(OC(C)=O)C(OC(C)=O)C3OC(C)=O)c(=O)c2C#N)cc1` (stereo not given), the GI50 in the assay on NCI-H522 lung is 88.4 µM and 29.7 µM; with MOLT-4 leukemia, > 100 µM and 39.2 µM; in the assay on SK-MEL-5 melanoma, 60.7 µM and 29.3 µM; in the assay with MDA-N it was > 100 µM and 34.8 µM. The TGI in the assay on NCI-H522 lung is > 100 µM and 65.4 µM; in the assay with SNB-75 CNS, 60.6 µM and 89 µM; with UACC-62 melanoma, 97.9 µM and 61.9 µM; in the assay with MOLT-4 leukemia, above 100 µM; in the assay on SK-MEL-5 melanoma, above 100 µM; in the assay on HCC-2998 colon, 98.9 µM and 64.6 µM. Also, the TGI in the assay with A549 NSCLC and in the assay with MDA-N was above 100 µM in each case.

Take `COC(=O)C(C#N)=C1c2ccccc2Oc2ccccc21`: the TGI in the assay on NCI-H522 lung was 77.3 µM; in the assay on LXFL 529 NSCLC, 94.8 µM; in the assay on SNB-75 CNS, above 100 µM; with DLD-1 colon, above 100 µM; with UACC-62 melanoma, above 100 µM; in the assay with MOLT-4 leukemia it was above 100 µM. The TGI with XF 498 CNS, with SK-MEL-5 melanoma, with KM20L2 colon, in the assay on HCC-2998 colon, in the assay with A549 NSCLC and in the assay on M19-MEL melanoma was above 100 µM each time.

Regarding `COc1ccc(-c2c(C#N)c(N)n(C3OC(CO)C(O)C(O)C3O)c(=S)c2C#N)cc1` (stereo not given), in the assay with NCI-H522 lung, the GI50 is 34.4 µM and 13.2 µM. Moreover, the TGI with NCI-H522 lung, in the assay on SNB-75 CNS, in the assay with UACC-62 melanoma, with MOLT-4 leukemia, with SK-MEL-5 melanoma and with HCC-2998 colon was above 100 µM throughout. Besides, the TGI with A549 NSCLC and in the assay on MDA-N was above 100 µM in each case.

For `Clc1nc(Cl)nc(NC23CC4CC(CC(C4)C2)C3)n1`, the TGI came out at 30.9 µM in the assay on NCI-H522 lung; 36.5 µM with SNB-75 CNS; 35.1 µM in the assay on UACC-62 melanoma; 51.2 µM in the assay on MOLT-4 leukemia; 26.6 µM in the assay on SK-MEL-5 melanoma; 41.2 µM in the assay on HCC-2998 colon. Also, the TGI in the assay with A549 NSCLC is 38.5 µM; with MDA-N it was 35.3 µM.

Consider `COc1ccc(Nc2[nH]c(C(C)=O)c(N)c2C(=S)Nc2ccccc2)cc1`, for which the TGI in the assay on NCI-H522 lung is above 100 µM; with SNB-75 CNS, above 100 µM; in the assay with UACC-62 melanoma, 95.7 µM; with MOLT-4 leukemia, above 100 µM; in the assay on SK-MEL-5 melanoma, above 100 µM; in the assay with HCC-2998 colon, above 100 µM. Moreover, the TGI with A549 NSCLC and with MDA-N was above 100 µM each time.

With `CC(C)C(Sc1nc(-c2ccccc2)c(-c2ccccc2)[nH]1)C(=O)NNC(=S)Nc1ccccc1` (stereo not given), the TGI in the assay on NCI-H522 lung was determined as 21.5 µM; with LXFL 529 NSCLC it was 33.8 µM; in the assay with SNB-75 CNS, 53.6 µM; with DLD-1 colon, 52 µM; in the assay with UACC-62 melanoma, 12.4 µM; in the assay with MOLT-4 leukemia it was 33 µM. For the same compound, the TGI in the assay on XF 498 CNS came to 32.7 µM; in the assay on SK-MEL-5 melanoma, 25.4 µM; with KM20L2 colon it was 37.6 µM; in the assay with HCC-2998 colon, 17.6 µM; in the assay on A549 NSCLC, 60.9 µM; in the assay with M19-MEL melanoma, 33.4 µM.
